What all share (assay): relative viability (nuclei count vs DMSO), 5 days (fraction); higher = more cells survive
Compound in assay [1]: COC1=CC=C(C=C1)CN2C=CC3=C2C=C(C=C3)C(=O)NO + Nc1ncn([C@H]2C[C@H](O)[C@@H](CO)O2)c(=O)n1 [Decitabine] (partner 2 µM)
The gist of the method:
(§1)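 Lung cancer cell lines in 1536-well plates were dosed by pin tool the day after seeding, either with one drug alone or with a fixed anchor-drug dose plus five library-drug doses (not always all listed) in √10 steps. After 5 days, cells were fixed and their nuclei stained in one step (final 0.05% Triton X-100, 1% formaldehyde, 1 ug/ml Hoechst), then counted on 4× images. Relative viability is the nuclei count in treated wells divided by that in vehicle wells. Values are medians of duplicate plates.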

Compound in assay [2]: COC1=CC=C(C=C1)CN2C=CC3=C2C=C(C=C3)C(=O)NO + O=C(CCCCCCC(=O)Nc1ccccc1)NO [Vorinostat] (partner 1 µM)
An outline of the steps:
as §1

Compound in assay [3]: C[C@]1(c2nc3c(C(N)=O)cccc3[nH]2)CCCN1 [Veliparib] + CS(=O)(=O)CCNCc1ccc(-c2ccc3ncnc(Nc4ccc(OCc5cccc(F)c5)c(Cl)c4)c3c2)o1 [Lapatinib] (partner 2 µM)
An outline of the steps: as §1

Compound in assay [4]: C[C@]1(c2nc3c(C(N)=O)cccc3[nH]2)CCCN1 [Veliparib] + Cc1nc(NC(=O)N2CCC[C@H]2C(N)=O)sc1-c1ccnc(C(C)(C)C(F)(F)F)c1 [Alpelisib] (partner 2 µM)
The gist of the method:
as §1

For RERF-LC-KJ, the relative viability in assay [1] (first compound 0.08 µM) is 0.74; in assay [1] (first compound 0.253 µM) it was 0.675; in assay [1] (first compound 0.8 µM), 0.645; in assay [1] (first compound 2.53 µM), 0.738; in assay [1] (first compound 8 µM), 0.599; in assay [2] (first compound 0.08 µM), 0.624. Further, the relative viability in assay [2] (first compound 0.253 µM) amounted to 0.672; in assay [2] (first compound 0.8 µM) it was 0.66; in assay [2] (first compound 2.53 µM), 0.758; in assay [2] (first compound 8 µM) it was 0.632; in assay [3] (first compound 0.02 µM) it was 0.839; in assay [3] (first compound 0.06325 µM) it was 0.82. Further, the relative viability worked out at 0.853 in assay [3] (first compound 0.2 µM); 0.813 in assay [3] (first compound 0.6325 µM); 0.854 in assay [3] (first compound 2 µM); 0.715 in assay [4] (first compound 0.02 µM); 0.891 in assay [4] (first compound 0.06325 µM); 0.96 in assay [4] (first compound 0.2 µM). Moreover, the relative viability in assay [4] (first compound 0.6325 µM) was 0.761; in assay [4] (first compound 2 µM) it was 0.74.

For the cell line SK-LU-1, the relative viability in assay [1] (first compound 0.08 µM) amounted to 0.611; in assay [1] (first compound 0.253 µM) it was 0.616; in assay [1] (first compound 0.8 µM) it was 0.634; in assay [1] (first compound 2.53 µM) it was 0.753; in assay [1] (first compound 8 µM) it was 0.531; in assay [2] (first compound 0.08 µM), 0.527. The relative viability in assay [2] (first compound 0.253 µM) amounted to 0.753; in assay [2] (first compound 0.8 µM), 0.771; in assay [2] (first compound 2.53 µM) it was 0.718; in assay [2] (first compound 8 µM) it was 0.691; in assay [3] (first compound 0.02 µM), 0.868; in assay [3] (first compound 0.06325 µM), 0.835. Also, the relative viability in assay [3] (first compound 0.2 µM) turned out to be 0.966; in assay [3] (first compound 0.6325 µM), 0.823; in assay [3] (first compound 2 µM), 1.02; in assay [4] (first compound 0.02 µM), 1.12; in assay [4] (first compound 0.06325 µM) it was 0.943; in assay [4] (first compound 0.2 µM), 1.12. The relative viability turned out to be 0.927 in assay [4] (first compound 0.6325 µM) and 1.19 in assay [4] (first compound 2 µM).

Regarding SK-MES-1, the relative viability in assay [1] (first compound 0.08 µM) came out at 0.397; in assay [1] (first compound 0.253 µM), 0.377; in assay [1] (first compound 0.8 µM), 0.436; in assay [1] (first compound 2.53 µM) it was 0.369; in assay [1] (first compound 8 µM) it was 0.343; in assay [2] (first compound 0.08 µM), 1.04. Moreover, the relative viability in assay [2] (first compound 0.253 µM) amounted to 1.14; in assay [2] (first compound 0.8 µM) it was 1.04; in assay [2] (first compound 2.53 µM) it was 1.08; in assay [2] (first compound 8 µM) it was 1.05; in assay [3] (first compound 0.02 µM) it was 0.5; in assay [3] (first compound 0.06325 µM), 0.413. For the same cell line, the relative viability in assay [3] (first compound 0.2 µM) stood at 0.438; in assay [3] (first compound 0.6325 µM) it was 0.473; in assay [3] (first compound 2 µM), 0.473; in assay [4] (first compound 0.02 µM), 0.938; in assay [4] (first compound 0.06325 µM), 0.712; in assay [4] (first compound 0.2 µM), 0.878. Besides, the relative viability in assay [4] (first compound 0.6325 µM) amounted to 0.785; in assay [4] (first compound 2 µM), 0.848.

As to UMC-11, the relative viability in assay [1] (first compound 0.253 µM) is 0.369; in assay [1] (first compound 0.8 µM) it was 0.595; in assay [1] (first compound 2.53 µM) it was 0.575; in assay [1] (first compound 8 µM) it was 0.509; in assay [2] (first compound 0.08 µM), 0.149; in assay [2] (first compound 0.253 µM) it was 0.467. Besides, the relative viability in assay [2] (first compound 0.8 µM) is 0.428; in assay [2] (first compound 2.53 µM), 0.375; in assay [2] (first compound 8 µM), 0.506; in assay [3] (first compound 0.02 µM), 0.893; in assay [3] (first compound 0.06325 µM) it was 1; in assay [3] (first compound 0.2 µM) it was 0.841. Also, the relative viability was found to be 1.09 in assay [3] (first compound 0.6325 µM); 1.07 in assay [3] (first compound 2 µM); 1.01 in assay [4] (first compound 0.02 µM); 0.941 in assay [4] (first compound 0.06325 µM); 1.14 in assay [4] (first compound 0.2 µM); 0.947 in assay [4] (first compound 0.6325 µM). In addition, the relative viability in assay [4] (first compound 2 µM) was 0.972.
